According to ChEMBL document CHEMBL4610090, “Oleanolic Acid Ameliorates Benign Prostatic Hyperplasia by Regulating PCNA-Dependent Cell Cycle Progression In Vivo and In Vitro” (J Nat Prod, 2020):
Calls of active or inactive are those of the source. The rule behind the calls is not given here.

Columns and labels:
BPH-1 [1] = assay: Cytotoxicity against human BPH1 cells at 62.5 to 1000 uM by MTT assay; format: functional, cell-based
Rattus norvegicus [2] = assay: Downregulation of PCNA expression in prostate tissue of Sprague-Dawley rat model of testosterone propionate-induced benign prostatic hyperplasia at 1 to 10 mg/kg, ip by Western blot analysis; format: functional, organism-based
Rattus norvegicus [3] = assay: Downregulation of Cdk4 expression in prostate tissue of Sprague-Dawley rat model of testosterone propionate-induced benign prostatic hyperplasia at 1 to 10 mg/kg, ip by Western blot analysis; format: functional, organism-based
Rattus norvegicus [4] = assay: Downregulation of Cdk2 expression in prostate tissue of Sprague-Dawley rat model of testosterone propionate-induced benign prostatic hyperplasia at 1 to 10 mg/kg, ip by Western blot analysis; format: functional, organism-based
Rattus norvegicus [5] = assay: Suppression of prostate epithelial thickness in Sprague-Dawley rat model of testosterone propionate-induced benign prostatic hyperplasia at 10 mg/kg, ip by hematoxylin and eosin staining-based microscopic analysis relative to control; format: functional
[6] = biological target: Proliferating cell nuclear antigen (Homo sapiens) (UniProt P12004); assay: Inhibition of PCNA-mediated cell cycle progression in human BPH-1 cells assessed as reduction in cyclin D level at 250 to 500 uM after 24 hrs by immunoblot analysis; format: cell-based
Chain of Proliferating cell nuclear antigen (Homo sapiens) (P12004 whole entry): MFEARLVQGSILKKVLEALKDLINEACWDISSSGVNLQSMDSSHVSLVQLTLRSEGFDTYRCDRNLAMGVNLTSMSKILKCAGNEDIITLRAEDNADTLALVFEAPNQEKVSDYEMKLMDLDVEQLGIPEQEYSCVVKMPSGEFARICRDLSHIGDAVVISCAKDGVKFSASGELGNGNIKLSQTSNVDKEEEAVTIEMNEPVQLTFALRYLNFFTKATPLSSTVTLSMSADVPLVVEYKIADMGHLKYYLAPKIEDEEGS

Rattus norvegicus [7] = assay: Suppression of 5-alpha reductase2 mRNA expression in Sprague-Dawley rat model of testosterone propionate-induced benign prostatic hyperplasia at 1 to 10 mg/kg, ip by qRT-PCR method; format: functional, organism-based
Rattus norvegicus [8] = assay: Suppression of prostate tissue weight in Sprague-Dawley rat model of testosterone propionate-induced benign prostatic hyperplasia at 10 mg/kg, ip relative to control; format: functional
[9] = Toxicity in Sprague-Dawley rat model of testosterone propionate-induced benign prostatic hyperplasia assessed as effect on animal health at 1 to 10 mg/kg, ip; format: organism-based; conditions: in vivo
Rattus norvegicus [10] = assay: Induction of PARP1 cleavage in prostate tissue of Sprague-Dawley rat model of testosterone propionate-induced benign prostatic hyperplasia at 10 mg/kg, ip by Western blot analysis; format: functional, organism-based
[11] = biological target: Proliferating cell nuclear antigen (Homo sapiens) (UniProt P12004); assay: Inhibition of PCNA-mediated cell cycle progression in human BPH-1 cells assessed as reduction in cdk4 level at 125 to 500 uM after 24 hrs by immunoblot analysis; format: cell-based
Rattus norvegicus [12] = assay: Downregulation of prostate Bcl2 expression in Sprague-Dawley rat model of testosterone propionate-induced benign prostatic hyperplasia at 1 to 10 mg/kg, ip by Western blot analysis; format: functional, organism-based
Rattus norvegicus [13] = assay: Downregulation of Cyclin E expression in prostate tissue of Sprague-Dawley rat model of testosterone propionate-induced benign prostatic hyperplasia at 1 to 10 mg/kg, ip by Western blot analysis; format: functional, organism-based
Rattus norvegicus [14] = assay: Downregulation of PCNA […] expression in prostate tissue of Sprague-Dawley rat model of testosterone propionate-induced benign prostatic hyperplasia at 1 to 10 mg/kg, ip by immunohistochemical analysis; format: functional, organism-based
Rattus norvegicus [15] = assay: Suppression of prostate tissue weight in Sprague-Dawley rat model of testosterone propionate-induced benign prostatic hyperplasia at 1 mg/kg, ip relative to control; format: functional
[16] = Toxicity in Sprague-Dawley rat model of testosterone propionate-induced benign prostatic hyperplasia assessed as effect on body weight at 1 to 10 mg/kg, ip; format: organism-based; conditions: in vivo
Rattus norvegicus [17] = assay: Suppression of serum DHT level in Sprague-Dawley rat model of testosterone propionate-induced benign prostatic hyperplasia at 1 to 10 mg/kg, ip by ELISA; format: functional, organism-based
[18] = Toxicity in Sprague-Dawley rat model of testosterone propionate-induced benign prostatic hyperplasia assessed as behavioural changes at 1 to 10 mg/kg, ip; format: organism-based; conditions: in vivo
Rattus norvegicus [19] = assay: Downregulation of Cyclin D1 expression in prostate tissue of Sprague-Dawley rat model of testosterone propionate-induced benign prostatic hyperplasia at 1 to 10 mg/kg, ip by Western blot analysis; format: functional, organism-based
Rattus norvegicus [20] = assay: Downregulation of prostate Bcl-xL expression in Sprague-Dawley rat model of testosterone propionate-induced benign prostatic hyperplasia at 1 to 10 mg/kg, ip by Western blot analysis; format: functional, organism-based
BPH-1 [21] = assay: Downregulation of PCNA expression in human BPH1 cells at 125 to 500 uM after 24 hrs by immunoblot analysis; format: functional, cell-based
Rattus norvegicus [22] = assay: Downregulation of PCNA mRNA expression in prostate tissue of Sprague-Dawley rat model of testosterone propionate-induced benign prostatic hyperplasia at 10 mg/kg, ip by qRT-PCR method; format: functional
Rattus norvegicus [23] = assay: Suppression of prostate epithelial thickness in Sprague-Dawley rat model of testosterone propionate-induced benign prostatic hyperplasia at 1 mg/kg, ip by hematoxylin and eosin staining-based microscopic analysis relative to control; format: functional
Rattus norvegicus [24] = assay: Downregulation of PCNA mRNA expression in prostate tissue of Sprague-Dawley rat model of testosterone propionate-induced benign prostatic hyperplasia at 1 mg/kg, ip by qRT-PCR method; format: functional
Rattus norvegicus [25] = assay: Suppression of serum DHT level in Sprague-Dawley rat model of testosterone propionate-induced benign prostatic hyperplasia at 10 mg/kg, po by ELISA; format: functional, organism-based
Rattus norvegicus [26] = assay: Suppression of 5-alpha reductase2 mRNA expression in Sprague-Dawley rat model of testosterone propionate-induced benign prostatic hyperplasia at 10 mg/kg, po by qRT-PCR method; format: functional, organism-based
Rattus norvegicus [27] = assay: Induction of PARP1 cleavage in prostate tissue of Sprague-Dawley rat model of testosterone propionate-induced benign prostatic hyperplasia at 10 mg/kg, po by Western blot analysis; format: functional, organism-based
Rattus norvegicus [28] = assay: Suppression of prostate tissue weight in Sprague-Dawley rat model of testosterone propionate-induced benign prostatic hyperplasia at 10 mg/kg, po relative to control; format: functional
Rattus norvegicus [29] = assay: Downregulation of prostate Bcl2 expression in Sprague-Dawley rat model of testosterone propionate-induced benign prostatic hyperplasia at 10 mg/kg, po by Western blot analysis; format: functional, organism-based
Rattus norvegicus [30] = assay: Downregulation of prostate Bcl-xL expression in Sprague-Dawley rat model of testosterone propionate-induced benign prostatic hyperplasia at 10 mg/kg, po by Western blot analysis; format: functional, organism-based

CC1(C)CC[C@]2(C(=O)O)CC[C@]3(C)C(=CC[C@@H]4[C@@]5(C)CC[C@H](O)C(C)(C)[C@@H]5CC[C@]43C)[C@@H]2C1 [OLEANOLIC_ACID]
Activity (BPH-1 [1]): Active | Activity (Rattus norvegicus [2]): Active | Activity (Rattus norvegicus [3]): Active | Activity (Rattus norvegicus [4]): Active | inhibition in vivo at 10 mg/kg (Rattus norvegicus [5]): 54.8% | inhibition [6]: Active | inhibition (Rattus norvegicus [7]): Active | inhibition in vivo at 10 mg/kg (Rattus norvegicus [8]): 31.2% | Activity [9]: Non-Toxic | Activity (Rattus norvegicus [10]): Active | inhibition [11]: Active | Activity (Rattus norvegicus [12]): Active | Activity (Rattus norvegicus [13]): Active | Activity (Rattus norvegicus [14]): Active | inhibition in vivo at 1 mg/kg (Rattus norvegicus [15]): 30.9% | Activity [16]: Non-Toxic | inhibition (Rattus norvegicus [17]): Active | Activity [18]: Non-Toxic | Activity (Rattus norvegicus [19]): Active | Activity (Rattus norvegicus [20]): Active | Activity (BPH-1 [21]): Active | Activity (Rattus norvegicus [22]): 71.16% | inhibition in vivo at 1 mg/kg (Rattus norvegicus [23]): 48% | Activity (Rattus norvegicus [24]): 54.89%

CC(C)(C)NC(=O)[C@H]1CC[C@H]2[C@@H]3CC[C@H]4NC(=O)C=C[C@]4(C)[C@H]3CC[C@]12C [FINASTERIDE]
Activity (Rattus norvegicus [25]): Active | inhibition (Rattus norvegicus [26]): Active | Activity (Rattus norvegicus [27]): Active | inhibition in vivo at 10 mg/kg (Rattus norvegicus [28]): 32.5% | Activity (Rattus norvegicus [29]): Active | Activity (Rattus norvegicus [30]): Active
